# Test system: Patients with glaucoma
# Experiment: Intraocular pressure of glaucoma patients measured by applanation tonometry during eyedrop treatment
# Format: in vivo, human
# Conditions: average of last six measurements
# Protocol: Patients with glaucoma which had led to glaucomatous damage were treated. All the patients had previously been treated with timolol 0.5% eyedrops, and in some cases with a combination therapy of timolol 0.5% and another antiglaucomatous agent. The initial state of the intraocular pressure was measured during the previous therapy by determining the average of the last six measurements during the previous therapy. Two groups of patients were then treated according to the invention. […] They formed the group of decompensated glaucomas. Group 2 comprised patients who had normalized intraocular pressures on treatment with timolol 0.5%. They formed the group of compensated glaucomas. […] A third group formed of 11 patients was treated in the same manner with eyedrops which contained only 0.5% lactalbumin hydrolyzate fraction from example 5. The intraocular pressure was checked initially after one day, after two days and then weekly. The measurements of intraocular pressure took place at various times of day (morning, midday, late afternoon) by applanation tonometry. In total, 18 patients with an average age of 56.6 years, of whom 8 were male and 10 patients were female, were treated for 9 weeks.
smiles,measurement,setting,value
CC(C)(C)NC[C@H](O)COc1nsnc1N1CCOCC1 [timolol],average intraocular pressure by applanation before the treatment according to the invention,"group 1 decompensated glaucomas, on timolol 0.5% or combination therapy with another antiglaucomatous agent, range of variation 3.6 mmHg",26.4 mmHg
same,average intraocular pressure by applanation before the treatment according to the invention,"group 2 compensated glaucomas, on timolol 0.5%, range of variation 1.6 mmHg",19.2 mmHg

# — patent publication US20050043214A1, “Antiglaucomatous agent and use thereof” (priority 2001, published 2005)
